Assay results published in PMC12587390, “Metabolite Identification Data in Drug Discovery, Part 1: Data Generation and Trend Analysis” (Molecular Pharmaceutics, 2025).
In brackets after ≈: the same amount, converted by molar mass.

Columns and labels:
[1] = MetID on in vivo dog samples (plasma, urine); set-up: species or system dog (beagles); details: for % of the total MS area, Dog Plasma (Female): sampled at 3 h and 30 min
Experimental: (§1) The workup procedure could vary somewhat depending on the compound and dose, but the general procedure was as follows: Two volumes of ACN/methanol (1:1, v:v) were added to the plasma samples and vortex-mixed to precipitate the proteins. Thereafter, the samples were centrifuged for 10 min (at 10,000 g and 4 °C), and the supernatants were diluted with one volume of water. The urine samples were diluted with one volume of ACN/methanol (1:1, v:v) and centrifuged for 10 min (at 10,000 g and 4 °C), followed by a 1:1 dilution with water.
(§2) Structural characterization of metabolites and metabolite profiling were performed using the Waters Acquity ultraperformance liquid chromatography (UPLC) system fitted to a Waters High-Resolution Mass Spectrometer (MS) (Xevo G2-S, Synapt G2-Si, or a Synapt XS MS). The Waters MS systems, equipped with an electrospray ionization (ESI) source, were operated in positive-ion sensitivity mode over a mass range m/z 50–1200 and in negative-ion sensitivity mode over a mass range m/z of 50–1200.
(§3) The reversed-phase gradient elution was performed on an Acquity U(H)-PLC BEH C18 column (2.1 × 100 mm, 1.7 μm, Waters) set at 45 °C. The mobile phases consisted of 0.1% FA in water (A) and ACN (B). […] The injection volume was 2 μL. The MS settings were optimized for the respective MS instrument. […] A scan time of 0.1 s was used, and data were acquired in centroid mode. Collision energy was set to “off” for the low-energy function, whereas in the high-energy MSe functions, the collision energies were typically ramped from 15 to 35 V in the trap cell, with constant collision energies of 20 V in their transfer cells. Cone voltage was set to 25 V for both low- and high-energy functions. For dedicated MS/MS, the m/z of the molecular ion was selected in the quadrupole, and the mass range for fragmentation analysis was typically set between 50 and 1200. The collision energies were either the same as those stated above for MSe data generation or optimized for a specific metabolite. Tune parameters for all MS analyses consisted of a capillary energy of 0.5 kV, sampling cone energy of 40 V, source temperature of 150 °C, desolvation temperature of 550 °C, cone gas flow of 0 L/h, desolvation gas flow of 1200 L/h, and nebulizer pressure of 6.5 bar.
(§4) Metabolite identification was conducted by processing the generated data using the MetaboLynx XS browser (Waters), MassMetaSite and the web interface ONIRO (Mass Analytica). […] Accurate masses of metabolites were determined from the protonated molecules in the positive ESI time-of-flight MS (ESI–TOF–MS) mode and from the deprotonated molecules in the negative ESI–TOF–MS mode. […] For those metabolites where no MS/MS data could be acquired, identification was based on the accurate mass of the molecular ion and the fragmentation seen in the MSe spectrum. Relative amounts of detected metabolites were calculated as % of the total MS area by dividing the MS peak area for the metabolite (or parent compound) by the combined MS peak area for the parent compound and all identified metabolites.

[2] = MetID on in vivo rat plasma samples; set-up: species or system rat (Han Wistar)
Experimental: as §1, §2, §3, §4

[3] = system: rat hepatocytes; test: Metabolite identification in rat hepatocyte incubations; format: in vitro ADME; details: Cmpd 28 incubated for 120 min, 4 μM
Experimental: (§5) Cryopreserved, pooled primary human, dog, and rat hepatocytes were obtained from BioIVT (previously Celsis IVT). L-15 Leibovitz buffer was placed in a water bath to reach 37 °C. Cryopreserved hepatocytes were transferred from a −150 °C freezer on dry ice and immediately immersed in a preheated water bath kept at 37 °C for thawing. When only a small ice crystal could be seen, the content was emptied into a 50 mL falcon tube filled with warm buffer (maximum four vials/falcon tube). The suspension was centrifuged at room temperature for 3 min at 50 g. The supernatant was removed, the pellet was resuspended in a small volume of buffer, and the falcon tube was refilled with buffer, followed by another centrifugation to wash away any remaining storage buffer. Thereafter, the supernatant was removed, and the pellet was dissolved in a small volume of buffer and diluted to a concentration of about 3–5 million cells/mL. After counting the cells using a Casy cell counter, the suspension was diluted to 1 million viable cells/mL and kept at room temperature until use. The viability cutoff was 80%.
(§6) An aliquot of 245 μL of hepatocyte suspension was added to a round-bottomed 96-deep-well plate using a manual multipipette. The deep-well plate was preincubated for 15 min at 37 °C and 13 Hz. Substrate solutions of the assay compounds were prepared by the robot in a 96-well plate as follows: 4 μL of 10 mM DMSO stock solution, followed by the addition of 96 μL of ACN:water (1:1, v:v) and mixing by shaking. 50 μL from each well were transferred to and combined in a new plate, resulting in 100 μL per well and a dilution of 1:1.
The reaction was started by the addition of 5 μL of 200 μM substrate solution to the preheated hepatocyte suspension, resulting in a final substrate concentration of 4 μM (0.04% DMSO, <0.5% ACN). The incubation was continued at 37 °C and 13 Hz. At each time point (0, 40, and 120 min), a 50 μL sample was taken out and quenched in 200 μL of cold ACN:methanol (1:1, v:v), and the stopped plates were centrifuged for 20 min (set at 4 °C and 4000 g). […]

[4] = system: dog hepatocytes; test: Metabolite identification in dog hepatocyte incubations; format: in vitro ADME; details: for % of the total MS area, Dog Hepatocytes (Mixed gender): Cmpd 28 incubated for 120 min, 4 μM
Experimental: as §5, §6
(§7) The reaction was started by the addition of 5 μL of 200 μM substrate solution to the preheated hepatocyte suspension, resulting in a final substrate concentration of 4 μM (0.04% DMSO, <0.5% ACN). The incubation was continued at 37 °C and 13 Hz. At each time point (0, 40, and 120 min), a 50 μL sample was taken out and quenched in 200 μL of cold ACN:methanol (1:1, v:v), and the stopped plates were centrifuged for 20 min (set at 4 °C and 4000 g). The supernatant was diluted by taking 50 μL and mixing it with 100 μL of water. Incubations of the positive controls, albendazole and dextromethorphan, were performed in parallel as described above.
as §2
(§8) The reversed-phase gradient elution was performed on an Acquity U(H)-PLC BEH C18 column (2.1 × 100 mm, 1.7 μm, Waters) set at 45 °C. The mobile phases consisted of 0.1% FA in water (A) and ACN (B). […] The injection volume was 2 μL. The MS settings were optimized for the respective MS instrument. […] A scan time of 0.1 s was used, and data were acquired in centroid mode. Collision energy was set to “off” for the low-energy function, whereas in the high-energy MSe functions, the collision energies were typically ramped from 15 to 35 V in the trap cell, with constant collision energies of 20 V in their transfer cells. Cone voltage was set to 25 V for both low- and high-energy functions. For dedicated MS/MS, the m/z of the molecular ion was selected in the quadrupole, and the mass range for fragmentation analysis was typically set between 50 and 1200. The collision energies were either the same as those stated above for MSe data generation or optimized for a specific metabolite.

[5] = system: human hepatocytes; test: Metabolic stability in human hepatocytes (HH CLint); format: in vitro ADME; details: 37 °C, 2 h
Experimental: Metabolic stability in human hepatocytes (HH CLint) was measured by incubating the cells with the test compound at 37 °C for 2 h. An aliquot of the mixture was taken at typically nine defined time points, and the metabolic reaction was stopped by adding ACN. The samples were centrifuged, and the supernatant was analyzed via LC-MS/MS. Intrinsic clearance (CLint) was calculated from the disappearance rate of the parent compound. ,

[6] = system: human hepatocytes; test: Metabolite identification in human hepatocyte incubations; format: in vitro ADME; details: 4 μM
Experimental: as §5, §6, §7, §2, §8

[7] = Thermodynamic solubility, shake-flask; details: 10 mM sodium phosphate buffer, 25 °C, pH 7.4, aqueous buffer, thermodynamic from solid
Experimental: Solubility was measured as the thermodynamic solubility using a shake-flask approach. Here, DMSO was evaporated from the compound stock solution as the first step. The “dried” compounds were then placed into 10 mM sodium phosphate buffer, adjusted to pH 7.4, and equilibrated at 25 °C for 24 h. The samples were centrifuged, and the solution was analyzed by LC-MS/MS to determine the amount of compound in solution.

[8] = after Cmpd 16, semiquantitative
[9] = after Cmpd 16, oral, sampled at 60 min
[10] = dog hepatocytes, incubated for 120 min

## O=C(O)[C@@H]1CCCC[C@H]1C(=O)c1ccc(-c2cc[nH]n2)cc1 [Cmpd 16 M10]
[1]; [8]
  % of the total MS area, Dog Plasma (Female): 1%
[2]; [9]
  % of the total MS area, Rat Plasma (Female): 1%
  % of the total MS area, Rat Plasma (Male): 1%

## O=C(Nc1c[nH]nc1C(F)(F)F)[C@@H]1CCCC[C@H]1C(=O)c1ccc(-c2cc[nH]n2)cc1 [Cmpd 16 M12]
[1]; [8]
  % of the total MS area, Dog Plasma (Female): 2%
[2]; [9]
  % of the total MS area, Rat Plasma (Female): 2%

## O=C(O)[C@H]1OC(OC(=O)[C@@H]2CCCC[C@H]2C(=O)c2ccc(-c3cc[nH]n3)cc2)[C@H](O)[C@@H](O)[C@@H]1O (stereo partly shown) [Cmpd 16 M13]
[1]; [8]
  % of the total MS area, Dog Plasma (Female): 0.5%

## Cc1cc(-c2ccc(C(=O)[C@@H]3CCCC[C@H]3C(=O)O)cc2)n[nH]1 [Cmpd 28 M1]
[3]
  % of the total MS area, Rat Hepatocytes (Mixed gender): no detection
[4]
  % of the total MS area, Dog Hepatocytes (Mixed gender): 4%
[1]; after Cmpd 28
  % of the total MS area, Dog Plasma (Female): 12%
[2]; after Cmpd 28, sampled at 4 h
  % of the total MS area, Rat Plasma (Female): 18%
  % of the total MS area, Rat Plasma (Male): 17%

## Cc1cc(-c2ccc(C(=O)C3CCCCC3C(=O)OC3OC(C(=O)O)C(O)C(O)C3O)cc2)n[nH]1 (stereo not shown) [Cmpd 28 M2]
[3]
  % of the total MS area, Rat Hepatocytes (Mixed gender): no detection
[4]
  % of the total MS area, Dog Hepatocytes (Mixed gender): 4%
[1]; after Cmpd 28
  % of the total MS area, Dog Plasma (Female): 40%
[2]; after Cmpd 28, sampled at 4 h
  % of the total MS area, Rat Plasma (Female): 1%
  % of the total MS area, Rat Plasma (Male): 0.5%

## Cc1nn(C)cc1NC(=O)[C@@H]1CCCC[C@H]1C(=O)c1ccc(-c2cc(C(=O)O)[nH]n2)cc1 [Cmpd 28 M7]
[4]
  % of the total MS area, Dog Hepatocytes (Mixed gender): not detected
[1]; after Cmpd 28
  % of the total MS area, Dog Plasma (Female): 5%
[2]; after Cmpd 28, sampled at 4 h
  % of the total MS area, Rat Plasma (Female): not seen
  % of the total MS area, Rat Plasma (Male): not seen

## Cc1cc(-c2ccc(C(=O)[C@@H]3CCCC[C@H]3C(N)=O)cc2)n[nH]1 [Cmpd 28 M8]
[2]; after Cmpd 28, sampled at 4 h
  % of the total MS area, Rat Plasma (Female): 1%
  % of the total MS area, Rat Plasma (Male): 3%

## O=C(O)[C@@H]1CCCC[C@H]1C(=O)c1ccc(-c2cc(CO)[nH]n2)cc1 [Cmpd 28 M10]
[2]; after Cmpd 28, sampled at 4 h
  % of the total MS area, Rat Plasma (Male): 1%

## Cc1cc(-c2ccc(C(=O)[C@@H]3CCCC[C@H]3C(=O)Nc3c[nH]nc3C)cc2)n[nH]1 [Cmpd 28 M11]
[1]; after Cmpd 28
  % of the total MS area, Dog Plasma (Female): 0.5%
[2]; after Cmpd 28, sampled at 4 h
  % of the total MS area, Rat Plasma (Female): <1%
  % of the total MS area, Rat Plasma (Male): 1%

## CC(=O)Nc1cn(C)nc1C [Cmpd 28 M12]
[2]; after Cmpd 28, sampled at 4 h
  % of the total MS area, Rat Plasma (Female): 1%
  % of the total MS area, Rat Plasma (Male): 1%

## Cc1cc(-c2ccc(C(=O)[C@@H]3CCCC[C@H]3C(=O)Nc3cn(C)nc3C)cc2)n[nH]1 [Cmpd 28, Cc1cc(-c2ccc(C(=O)[C@@H]3CCCC[C@H]3C(=O)Nc3cn(C)nc3C)cc2)n[nH]1]
[1]; after Cmpd 28
  % of the total MS area, Dog Plasma (Female): 34%

## CN(C(=O)c1ccc(Cl)cc1)C(CN1CC(O)C1)C1CC1 (stereo not shown) [Cmpd 47, CN(C(=O)c1ccc(Cl)cc1)[C@H](CN1CC(O)C1)C1CC1]
[4]; [10]
  Parent, % of the total MS area: 83%
[1]; dog plasma, sampled at 30 min
  Parent, % of the total MS area: 5%
[1]; dog urine, sampled at 7–24 h
  Parent, % of the total MS area: 5%

## CC(C)C(CN1CC(O)C1)N(C)C(=O)c1ccc(Cl)cc1 (stereo not shown) [Cmpd 50, CC(C)[C@@H](CN1CC(C1)O)N(C)C(=O)c2ccc(cc2)Cl]
[4]; [10]
  Parent, % of the total MS area: 73%
[1]; dog plasma
  Metabolites detected in plasma: No metabolites
[1]; dog plasma, sampled at 60 min
  Parent, % of the total MS area: >99%
[1]; dog urine, sampled at 7–24 h
  Parent, % of the total MS area: 10%

## CCCC(CN1CC(O)C1)N(C)C(=O)c1ccc(Cl)cc1 (stereo not shown) [Cmpd 51, CCC[C@@H](CN1CC(O)C1)N(C)C(=O)c1ccc(Cl)cc1]
[4]; [10]
  Parent, % of the total MS area: 80%
[1]; dog plasma, sampled at 60 min
  N-oxide, % of the total MS area: not observed
  Parent, % of the total MS area: 20%
[1]; dog urine, sampled at 7–24 h
  N-oxide, % of the total MS area: not observed
  Parent, % of the total MS area: 22%

## CN(C(=O)c1ccc(C#N)cc1)C(CN1CC(O)C1)c1ccccc1 (stereo not shown) [Cmpd 55, CN(C(=O)c1ccc(C#N)cc1)[C@H](CN1CC(O)C1)c1ccccc1]
[4]; [10]
  N-oxide, % of the total MS area: no N-oxidation was seen
  Parent, % of the total MS area: 97%
[1]; dog plasma, sampled at 60 min
  N-oxide, % of the total MS area: not observed
  Parent, % of the total MS area: 49%
[1]; dog urine, sampled at 7–24 h
  N-oxide, % of the total MS area: not observed
  Parent, % of the total MS area: 61%

## COc1ccc(-c2nnc(C(=O)N3CC(Oc4ccc(CN(C)C)c(C)c4)C3)o2)cc1 [Cmpd 67, COc1ccc(-c2nnc(C(=O)N3CC(Oc4ccc(CN(C)C)c(C)c4)C3)o2)cc1]
[5]
  HH CLint: 16 μL/min/1E6
[6]
  Metabolites / metabolic pathways identified: N- and O-demethylation are major metabolic pathways

## COc1ccc(-c2nnc(C(=O)N3CC(Oc4ccc(CN5CC(C)(O)C5)c(C)c4)C3)o2)cc1 [Cmpd 81, COc1ccc(-c2nnc(C(=O)N3CC(Oc4ccc(CN5CC(C)(O)C5)c(C)c4)C3)o2)cc1]
[5]
  HH CLint: 17 μL/min/1E6
[7]
  solubility at 24 h: 71 µM (≈ 33 µg/mL)
[6]
  Metabolites / metabolic pathways identified: O-demethylation pathway remains the major metabolic route
